From ChEMBL document CHEMBL3046447, “Insecticidal Activity of α-Methylene-γ-butyrolactone against Several Insect Pests” (1999)

Experiments:
Assay type in all cases: functional
Nilaparvata lugens [1] = assay: Insecticidal activity against adult Nilaparvata lugens (brown planthopper) assessed as mortality at 600 ug/disc after 48 hr relative to control
Nilaparvata lugens [2] = assay: Insecticidal activity against adult Nilaparvata lugens (brown planthopper) assessed as mortality at 600 ug/disc after 24 hr relative to control
[3] = system: Frankliniella occidentalis; assay: Insecticidal activity against adult Frankliniella occidentalis (western flower thrips) assessed as mortality at 75 ug/disc after 24 hr relative to control
[4] = system: Frankliniella occidentalis; assay: Insecticidal activity against adult Frankliniella occidentalis (western flower thrips) assessed as mortality at 37.5 ug/disc after 48 hr relative to control
[5] = system: Frankliniella occidentalis; assay: Insecticidal activity against adult Frankliniella occidentalis (western flower thrips) assessed as mortality at 37.5 ug/disc after 24 hr relative to control
[6] = system: Frankliniella occidentalis; assay: Insecticidal activity against adult Frankliniella occidentalis (western flower thrips) assessed as mortality at 12.5 ug/disc after 72 hr relative to control
[7] = system: Frankliniella occidentalis; assay: Insecticidal activity against adult Frankliniella occidentalis (western flower thrips) assessed as mortality at 12.5 ug/disc after 48 hr relative to control
Nilaparvata lugens [8] = assay: Insecticidal activity against adult Nilaparvata lugens (brown planthopper) assessed as mortality at 60 ug/disc after 24 hr relative to control
Nilaparvata lugens [9] = assay: Insecticidal activity against adult Nilaparvata lugens (brown planthopper) assessed as mortality at 60 ug/disc after 48 hr relative to control
Spodoptera litura [10] = assay: Insecticidal activity against adult Spodoptera litura assessed as mortality at 600 ug/disc after 48 hr relative to control
Spodoptera litura [11] = assay: Insecticidal activity against adult Spodoptera litura assessed as mortality at 600 ug/disc after 24 hr relative to control
Spodoptera litura [12] = assay: Insecticidal activity against adult Spodoptera litura assessed as mortality at 60 ug/disc after 48 hr relative to control
Spodoptera litura [13] = assay: Insecticidal activity against adult Spodoptera litura assessed as mortality at 60 ug/disc after 24 hr relative to control
Plutella xylostella [14] = assay: Insecticidal activity against adult Plutella xylostella (diamondback moth) assessed as mortality at 600 ug/disc after 48 hr relative to control
Plutella xylostella [15] = assay: Insecticidal activity against adult Plutella xylostella (diamondback moth) assessed as mortality at 600 ug/disc after 24 hr relative to control
Plutella xylostella [16] = assay: Insecticidal activity against adult Plutella xylostella (diamondback moth) assessed as mortality at 60 ug/disc after 48 hr relative to control
Plutella xylostella [17] = assay: Insecticidal activity against adult Plutella xylostella (diamondback moth) assessed as mortality at 60 ug/disc after 24 hr relative to control
Frankliniella intonsa [18] = assay: Insecticidal activity against adult Frankliniella intonsa assessed as mortality at 25 ug/disk after 24 hr relative to control
Frankliniella intonsa [19] = assay: Insecticidal activity against adult Frankliniella intonsa assessed as mortality at 12.5 ug/disk after 72 hr relative to control
Frankliniella intonsa [20] = assay: Insecticidal activity against adult Frankliniella intonsa assessed as mortality at 12.5 ug/disk after 48 hr relative to control
Frankliniella intonsa [21] = assay: Insecticidal activity against adult Frankliniella intonsa assessed as mortality at 12.5 ug/disk after 24 hr relative to control
Thrips palmi [22] = assay: Insecticidal activity against adult Thrips palmi assessed as mortality at 75 ug/disk after 24 hr relative to control
Thrips palmi [23] = assay: Insecticidal activity against adult Thrips palmi assessed as mortality at 50 ug/disk after 48 hr relative to control
Thrips palmi [24] = assay: Insecticidal activity against adult Thrips palmi assessed as mortality at 50 ug/disk after 24 hr relative to control
Thrips palmi [25] = assay: Insecticidal activity against adult Thrips palmi assessed as mortality at 37.5 ug/disk after 72 hr relative to control
Thrips palmi [26] = assay: Insecticidal activity against adult Thrips palmi assessed as mortality at 37.5 ug/disk after 48 hr relative to control
Thrips palmi [27] = assay: Insecticidal activity against adult Thrips palmi assessed as mortality at 37.5 ug/disk after 24 hr relative to control
Thrips palmi [28] = assay: Insecticidal activity against adult Thrips palmi assessed as mortality at 25 ug/disk after 72 hr relative to control
Thrips palmi [29] = assay: Insecticidal activity against adult Thrips palmi assessed as mortality at 25 ug/disk after 48 hr relative to control
Thrips palmi [30] = assay: Insecticidal activity against adult Thrips palmi assessed as mortality at 25 ug/disk after 24 hr relative to control
Thrips palmi [31] = assay: Insecticidal activity against adult Thrips palmi assessed as mortality at 12.5 ug/disk after 72 hr relative to control
Thrips palmi [32] = assay: Insecticidal activity against adult Thrips palmi assessed as mortality at 12.5 ug/disk after 24 hr relative to control
Thrips palmi [33] = assay: Insecticidal activity against adult Thrips palmi assessed as mortality at 12.5 ug/disk after 48 hr relative to control
[34] = system: Frankliniella occidentalis; assay: Insecticidal activity against adult Frankliniella occidentalis (western flower thrips) assessed as mortality at 12.5 ug/disc after 24 hr relative to control
Frankliniella intonsa [35] = assay: Insecticidal activity against adult Frankliniella intonsa assessed as mortality at 75 ug/disk after 24 hr relative to control
Frankliniella intonsa [36] = assay: Insecticidal activity against adult Frankliniella intonsa assessed as mortality at 50 ug/disk after 72 hr relative to control
Frankliniella intonsa [37] = assay: Insecticidal activity against adult Frankliniella intonsa assessed as mortality at 50 ug/disk after 48 hr relative to control
Frankliniella intonsa [38] = assay: Insecticidal activity against adult Frankliniella intonsa assessed as mortality at 37.5 ug/disk after 72 hr relative to control
Frankliniella intonsa [39] = assay: Insecticidal activity against adult Frankliniella intonsa assessed as mortality at 37.5 ug/disk after 48 hr relative to control
Frankliniella intonsa [40] = assay: Insecticidal activity against adult Frankliniella intonsa assessed as mortality at 37.5 ug/disk after 24 hr relative to control
Frankliniella intonsa [41] = assay: Insecticidal activity against adult Frankliniella intonsa assessed as mortality at 25 ug/disk after 72 hr relative to control
Frankliniella intonsa [42] = assay: Insecticidal activity against adult Frankliniella intonsa assessed as mortality at 25 ug/disk after 48 hr relative to control

C=C1CCOC1=O [TULIPALINE A]
mortality at 600 µg/disc (Nilaparvata lugens [1]): 30% | mortality at 600 µg/disc (Nilaparvata lugens [2]): 0% | mortality at 75 µg/disc [3]: 100% | mortality at 37.5 µg/disc [4]: 100% | mortality at 37.5 µg/disc [5]: 52% | mortality at 12.5 µg/disc [6]: 12% | mortality at 12.5 µg/disc [7]: 8% | mortality at 60 µg/disc (Nilaparvata lugens [8]): 0% | mortality at 60 µg/disc (Nilaparvata lugens [9]): 0% | mortality at 600 µg/disc (Spodoptera litura [10]): 20% | mortality at 600 µg/disc (Spodoptera litura [11]): 0% | mortality at 60 µg/disc (Spodoptera litura [12]): 0% | mortality at 60 µg/disc (Spodoptera litura [13]): 0% | mortality at 600 µg/disc (Plutella xylostella [14]): 50% | mortality at 600 µg/disc (Plutella xylostella [15]): 0% | mortality at 60 µg/disc (Plutella xylostella [16]): 0% | mortality at 60 µg/disc (Plutella xylostella [17]): 0% | mortality at 25 µg/disc (Frankliniella intonsa [18]): 34% | mortality at 12.5 µg/disc (Frankliniella intonsa [19]): 0% | mortality at 12.5 µg/disc (Frankliniella intonsa [20]): 0% | mortality at 12.5 µg/disc (Frankliniella intonsa [21]): 0% | mortality at 75 µg/disc (Thrips palmi [22]): 100% | mortality at 50 µg/disc (Thrips palmi [23]): 100% | mortality at 50 µg/disc (Thrips palmi [24]): 80% | mortality at 37.5 µg/disc (Thrips palmi [25]): 100% | mortality at 37.5 µg/disc (Thrips palmi [26]): 94% | mortality at 37.5 µg/disc (Thrips palmi [27]): 56% | mortality at 25 µg/disc (Thrips palmi [28]): 90% | mortality at 25 µg/disc (Thrips palmi [29]): 70% | mortality at 25 µg/disc (Thrips palmi [30]): 14% | mortality at 12.5 µg/disc (Thrips palmi [31]): 20% | mortality at 12.5 µg/disc (Thrips palmi [32]): 2% | mortality at 12.5 µg/disc (Thrips palmi [33]): 14% | mortality at 12.5 µg/disc [34]: 4% | mortality at 75 µg/disc (Frankliniella intonsa [35]): 100% | mortality at 50 µg/disc (Frankliniella intonsa [36]): 94% | mortality at 50 µg/disc (Frankliniella intonsa [37]): 70% | mortality at 37.5 µg/disc (Frankliniella intonsa [38]): 76% | mortality at 37.5 µg/disc (Frankliniella intonsa [39]): 66% | mortality at 37.5 µg/disc (Frankliniella intonsa [40]): 58% | mortality at 25 µg/disc (Frankliniella intonsa [41]): 48% | mortality at 25 µg/disc (Frankliniella intonsa [42]): 48%
